# Measurements reported in patent publication US4052515A, “Method of treating acne with alcohol” (priority 1976, dated 1977).
# Legend:
# [1] = tested on: Corynebacterium acne lysate supernatant lypolytic activity; experiment: Lypolytic activity of C. acne lysate supernatant, tributyrin turbidity; assay type: biochemical; conditions: for Percent Inhibition C. Acne: tributyrin 0.05% substrate, initial rates of turbidity change; for Effect on inhibiting the hydrolysis of the tributyrin: summary in words for C. acne and comedo homogenate
# Description: Cells of a pure culture of Corynebacterium acne are collected, lysed in 0.05M phosphate buffer and centrifuged. The resultant supernatant is also used to measure lypolytic activity.
# (§1) Tributyrin (0.05%) is dispersed in the phosphate buffered solutions by sonication, the alcohol is added, and then an aliquot of the enzyme solution added. The decrease in turbidity is measured spectrophotometrically. Inhibitory activity is determined by comparing initial rates of change.
# [2] = tested on: Comedo homogenate lypolytic activity; experiment: Lypolytic activity of comedo homogenate supernatant, tributyrin turbidity; assay type: biochemical; conditions: tributyrin 0.05% substrate
# Description: Comedones are collected from the face of subjects with varying degrees of acne and homogenized in 0.05M phosphate buffer, pH 8.1. The mixture is centrifuged and the supernatant is used to measure lypolytic activity.
# as §1
# [3] = Topical application of compositions to skin affected by acne; assay type: in vivo; conditions: 3 to 10 milligrams composition per square centimeter of skin, about 3 weeks
# Text: When treating acne it is preferred that a regimen involving multiple applications of the composition over a period of days or weeks be employed. The amount of the composition applied to the affected areas which constitutes an effective amount will vary depending on the particular person and degree of acne. It is preferred that the composition be applied to the affected areas at a rate of 3 milligrams of composition per square centimeter to 10 milligrams composition per square centimeter of treated tissue.
# The above compositions show an anti-acne effect when topically applied to skin areas so affected at a rate of between 3 to 10 milligrams composition per square centimeter of skin over a period of about 3 weeks.
# [4] = tested on: Pityrosporum ovale whole cell lipase activity; experiment: Whole cell lipase activity, pH stat; assay type: cell-based; conditions: for Percent Inhibition Tributyrin / Percent Inhibition Triolein: P. Ovale, alcohol 0.5mMoles; for Percent Inhibition Tributyrin: tributyrin substrate; for Percent Inhibition Triolein: triolein substrate; for Inhibitory activity against different types and strains of skin microorganisms and substrates: summary in words over all strains and both substrates
# Description: Cells from three strains of C.Acnes and one strain of Pityrosporum ovale are collected and whole cells used to measure lipase activity. Tributyrin and triolein are used as substrates by dispersing them in a histidine-buffered system by sonication and measuring the acid changes with a pH stat. Alcohols are added to the substrate at a level of 0.5mMoles.
# [5] = tested on: P. Ovale cells and artificial sebum lipid; experiment: Irritation by artificial sebum plus P. Ovale cells on guinea pig back; assay type: in vivo, guinea pigs; conditions: for Average Irritation Grade: graded after 5 days, scale 0-4, 4 most severe, 0% control 2.0; for Reduction of irritation produced by P. Ovale cells and artificial sebum lipid: summary in words
# Description: (§2) A lipid mixture resembling human sebum in composition, but lacking free fatty acids, is applied to the back of guinea pigs along with an inoculum of P. Ovale cells. Alcohol is added to the artificial sebum lipid at concentrations of 1 and 5%. Irritation is graded after 5 days on a scale of 0-4, 4 being most severe.
# [6] = tested on: P. Ovale cells and artificial sebum lipid; experiment: Parallel experiment: irritation and free fatty acid in artificial sebum after 5 days; assay type: in vivo, guinea pigs; conditions: for Irritation Grade: after 5 days, control 3; for % Free Fatty Acids: lipids extracted after 5 days, control 12.5
# Description: as §2
# In a parallel experiment, 1-octanol is mixed in the artificial sebum in varying ratios. After 5 days the lipids are extracted and the quantity of free fatty acid determined.
# [7] = Stoler disclosure; cited from earlier work
# [8] = 1.0% alcohol in artificial sebum
# [9] = 5.0% alcohol in artificial sebum
smiles,measurement,setting,value
"CCCCO [1-butanol, reference compound]",Percent Inhibition C. Acne,[1]; 0.1% alcohol,0%
same,Effect on inhibiting the hydrolysis of the tributyrin,[1],no measurable effect
same,Percent Inhibition Comedo Homogenate,[2]; 0.1% alcohol,0%
CCCCCCCCCCO [1-decanol],Anti-acne effect,[3],substantially the same results
same,Percent Inhibition Tributyrin,[4],63%
same,Percent Inhibition Triolein,[4],24%
same,Inhibitory activity against different types and strains of skin microorganisms and substrates,[4],broad inhibitory activity
same,Average Irritation Grade,[5]; [8],1.3
same,Average Irritation Grade,[5]; [9],0.6
same,Reduction of irritation produced by P. Ovale cells and artificial sebum lipid,[5],able to reduce the irritation
CCCCCCCCCCCCO [1-dodecanol],Anti-acne effect,[3],substantially the same results
same,Average Irritation Grade,[5]; [8],1.3
same,Average Irritation Grade,[5]; [9],1.0
same,Reduction of irritation produced by P. Ovale cells and artificial sebum lipid,[5],able to reduce the irritation
CCCCCCCCO [1-octanol],Percent Inhibition C. Acne,[1]; 0.03% alcohol,63%
same,Percent Inhibition C. Acne,[1]; 0.1% alcohol,100%
same,Effect on inhibiting the hydrolysis of the tributyrin,[1],positive effect
same,Irritation Grade,[6]; alcohol concentration 0.5,2
same,% Free Fatty Acids,[6]; alcohol concentration 0.5,2.5%
same,Irritation Grade,[6]; alcohol concentration 1.0,2
same,% Free Fatty Acids,[6]; alcohol concentration 1.0,1.7%
same,Irritation Grade,[6]; alcohol concentration 5.0,0.5
same,% Free Fatty Acids,[6]; alcohol concentration 5.0,2.5%
same,Percent Inhibition Comedo Homogenate,[2]; 0.03% alcohol,20%
same,Percent Inhibition Comedo Homogenate,[2]; 0.1% alcohol,27%
same,Percent Inhibition Tributyrin,[4],60%
same,Percent Inhibition Triolein,[4],12%
same,Inhibitory activity against different types and strains of skin microorganisms and substrates,[4],broad inhibitory activity
same,Average Irritation Grade,[5]; [8],0
same,Average Irritation Grade,[5]; [9],0.6
same,Reduction of irritation produced by P. Ovale cells and artificial sebum lipid,[5],able to reduce the irritation
CCCCCCC(C)O (centres unmarked) [2-octanol],Anti-acne effect,[3],substantially the same results
CCCCCCC=CCCO [3-decen-1-ol],Anti-acne effect,[3],substantially the same results
CCC=CCCO [3-hexen-1-ol],Anti-acne effect,[3],substantially the same results
CCCO [Propanol],Anti-acne effect,[3],substantially the same results
OCc1ccccc1 [benzyl alcohol],Anti-acne agent,[7],an effective anti-acne agent
same,Inhibition of the formation of free fatty acids,[7],effective in inhibiting the formation of free fatty acids
CC(C)O [isopropanol],Anti-acne effect,[3],substantially the same results
